Data: patent US20260020570A1, “HERBICIDAL COMBINATIONS AND A METHOD FOR CONTROLLING UNDESIRED VEGETATION” (UPL Mauritius Limited, priority 2022, published 2026)

Tested on: Eleusine indica
Test: Post-emergence herbicidal efficacy of L-glufosinate ammonium, additional herbicides and their combinations; expected efficacy by the Colby method
Format: in vivo
Method: The following products were used for testing the weed control efficacy of present herbicidal combinations.
Evaluation of Post-Emergence Herbicidal Activity:
Methodology: Trials were carried out to evaluate the efficacy of the combinations comprising L-glufosinate ammonium and the additional herbicides on Eleusine genus weeds.
All treatments were in 4 replications per treatment with a spray volume of about 150 L/ha.
Efficacy Evaluation: The expected efficacy of a combination comprising L-glufosinate ammonium and additional herbicides was calculated using the well-established Colby method.
In the Colby method, the expected (or predicted) response of a combination of herbicides is calculated by taking the product of the observed response for each individual component of the combination when applied alone, divided by 100, and subtracting this value from the sum of the observed response for each component when applied alone. An unexpected enhancement in efficacy of the combination is then determined by comparing the observed response of the combination to the expected (or predicted) response as calculated from the observed response of each individual component alone. […] The Colby method requires only a single dose of each herbicide applied alone and the mixture of both doses. The formula used to calculate the expected efficacy (EE) which was compared with the observed efficacy (OE) to determine the efficacy of the present disclosure is explained hereinbelow:
The expected efficacy for a combination of two active ingredients is as follows:
[formula] • wherein, • A=Observed efficacy of active ingredient A at the same concentration as used in the mixture. • B=Observed efficacy of the active ingredient B at the same concentration as used in the mixture.

For Cn1nc(C(F)(F)F)c(CS(=O)(=O)C2=NOC(C)(C)C2)c1OC(F)F [Pyroxasulfone], the “Observed efficacy (%) of Pyroxasulfone (75 g a.i./ha)” value (7 DAA, Table 11) was 5% and the “Observed efficacy (%) of Pyroxasulfone (75 g a.i./ha)” value (14 DAA, Table 11) was 30%.

In the case of CCc1cccc(C)c1N(C(=O)CCl)[C@@H](C)COC [S-metolachlor], the “Observed efficacy (%) of S-metolachlor (960 g a.i./ha)” value (7 DAA, Table 8) is reported as 5%, the “Observed efficacy (%) of S-metolachlor (960 g a.i./ha)” value (14 DAA, Table 8) is reported as 40% and the “Observed efficacy (%) of S-metolachlor (960 g a.i./ha)” value (21 DAA, Table 8) is reported as 40%. For the same molecule, the “Observed efficacy (%) of S-metolachlor (960 g a.i./ha)” value (28 DAA, Table 8) was 65%.

In the case of CCOC(=O)C(C)Oc1ccc(Oc2cnc3cc(Cl)ccc3n2)cc1 (centres unmarked) [quizalofop-ethyl, Quizalofop-ethyl], the “Observed efficacy (%) of quizalofop-ethyl (25 g a.i./ha)” value (21 DAA, Table 16) is reported as 95%.

COc1c(Cl)ccc(Cl)c1C(=O)O [Dicamba] was tested, and the “Observed efficacy (%) of Dicamba (228 g a.i./ha)” value (28 DAA, Table 14) was 5%.

With C[C@@H](Oc1ccc(Oc2cnc3cc(Cl)ccc3n2)cc1)C(=O)OCC1CCCO1 (some centres unmarked) [quizalofop-p-tefuryl, Quizalofop-p-tefuryl] the “Observed efficacy (%) of quizalofop-p-tefuryl (25 g a.i./ha)” value (21 DAA, Table 17) was 10%, the “Observed efficacy (%) of quizalofop-p-tefuryl (25 g a.i./ha)” value (28 DAA, Table 17) was 5% and the “Observed efficacy (%) of quizalofop-p-tefuryl (25 g a.i./ha)” value (35 DAA, Table 17) was 5%.

For C[N+](C)(C)CCO.O=C([O-])COc1ccc(Cl)cc1Cl [2,4-D choline], the “Observed efficacy (%) of 2,4-D choline (228 g a.i./ha)” value (7 DAA, Table 18) was 10%, the “Observed efficacy (%) of 2,4-D choline (228 g a.i./ha)” value (14 DAA, Table 18) was 10% and the “Observed efficacy (%) of 2,4-D choline (228 g a.i./ha)” value (21 DAA, Table 18) was 10%. The “Observed efficacy (%) of 2,4-D choline (228 g a.i./ha)” value (28 DAA, Table 18) was 5%.

With CP(=O)(O)CC[C@H](N)C(=O)O.N [L-glufosinate ammonium] the “Observed efficacy (%) of L-glufosinate ammonium (150 g a.i./ha)” value (“Observed efficacy (%) … (150 g a.i./ha)” below) (3 DAA, Table 15) was 40%, the “Observed efficacy (%) … (150 g a.i./ha)” value (7 DAA, Table 8) was 35% and the “Observed efficacy (%) … (150 g a.i./ha)” value (7 DAA, Table 9) was 35%. For the same molecule, the “Observed efficacy (%) … (150 g a.i./ha)” value (7 DAA, Table 10) was 35%, the “Observed efficacy (%) … (150 g a.i./ha)” value (7 DAA, Table 11) was 35% and the “Observed efficacy (%) … (150 g a.i./ha)” value (7 DAA, Table 12) was 40%. The “Observed efficacy (%) … (150 g a.i./ha)” value (7 DAA, Table 13) was 35%, the “Observed efficacy (%) … (150 g a.i./ha)” value (7 DAA, Table 15) was 50% and the “Observed efficacy (%) … (150 g a.i./ha)” value (7 DAA, Table 18) was 70%. For the same molecule, the “Observed efficacy (%) … (150 g a.i./ha)” value (14 DAA, Table 8) was 25%, the “Observed efficacy (%) … (150 g a.i./ha)” value (14 DAA, Table 9) was 25% and the “Observed efficacy (%) … (150 g a.i./ha)” value (14 DAA, Table 10) was 25%. The “Observed efficacy (%) … (150 g a.i./ha)” value (14 DAA, Table 11) was 30%, the “Observed efficacy (%) … (150 g a.i./ha)” value (14 DAA, Table 12) was 30% and the “Observed efficacy (%) … (150 g a.i./ha)” value (14 DAA, Table 13) was 30%. For the same molecule, the “Observed efficacy (%) … (150 g a.i./ha)” value (14 DAA, Table 15) was 40%, the “Observed efficacy (%) … (150 g a.i./ha)” value (14 DAA, Table 18) was 65% and the “Observed efficacy (%) … (150 g a.i./ha)” value (21 DAA, Table 8) was 20%. For the same molecule, the “Observed efficacy (%) … (150 g a.i./ha)” value (21 DAA, Table 9) was 15%, the “Observed efficacy (%) … (150 g a.i./ha)” value (21 DAA, Table 10) was 20% and the “Observed efficacy (%) … (150 g a.i./ha)” value (21 DAA, Table 12) was 20%. The “Observed efficacy (%) … (150 g a.i./ha)” value (21 DAA, Table 15) was 38%, the “Observed efficacy (%) … (150 g a.i./ha)” value (21 DAA, Table 16) was 35% and the “Observed efficacy (%) … (150 g a.i./ha)” value (21 DAA, Table 17) was 25%. For the same molecule, the “Observed efficacy (%) … (150 g a.i./ha)” value (21 DAA, Table 18) was 60%, the “Observed efficacy (%) … (150 g a.i./ha)” value (28 DAA, Table 8) was 10% and the “Observed efficacy (%) … (150 g a.i./ha)” value (28 DAA, Table 9) was 5%. For the same molecule, the “Observed efficacy (%) … (150 g a.i./ha)” value (28 DAA, Table 12) was 10%, the “Observed efficacy (%) … (150 g a.i./ha)” value (28 DAA, Table 14) was 40% and the “Observed efficacy (%) … (150 g a.i./ha)” value (28 DAA, Table 15) was 30%. For the same molecule, the “Observed efficacy (%) … (150 g a.i./ha)” value (28 DAA, Table 17) was 20%, the “Observed efficacy (%) … (150 g a.i./ha)” value (28 DAA, Table 18) was 50% and the “Observed efficacy (%) … (150 g a.i./ha)” value (35 DAA, Table 15) was 20%. The “Observed efficacy (%) … (150 g a.i./ha)” value (35 DAA, Table 17) was 18%.

CS(=O)(=O)c1cc(C(F)(F)F)ccc1C(=O)c1cnoc1C1CC1 [Isoxaflutole] was tested, and the “Observed efficacy (%) of Isoxaflutole (60 g a.i./ha)” value (7 DAA, Table 10) was 40%, the “Observed efficacy (%) of Isoxaflutole (60 g a.i./ha)” value (14 DAA, Table 10) was 75% and the “Observed efficacy (%) of Isoxaflutole (60 g a.i./ha)” value (21 DAA, Table 10) was 85%.

In the case of CCc1cccc(C)c1N(COC(C)C)C(=O)CCl [Propisochlor], the “Observed efficacy (%) of Propisochlor (540 g a.i./ha)” value (7 DAA, Table 13) is reported as 0% and the “Observed efficacy (%) of Propisochlor (540 g a.i./ha)” value (14 DAA, Table 13) is reported as 0%.

For CCN(CC)C(=O)C(C)Oc1cccc2ccccc12 (centres unmarked) [napropamide, Napropamide], the “Observed efficacy (%) of napropamide (675 g a.i./ha)” value (“Observed efficacy (%) of napropamide” below) (7 DAA, Table 12) was 5%, the “Observed efficacy (%) of napropamide” value (14 DAA, Table 12) was 5% and the “Observed efficacy (%) of napropamide” value (21 DAA, Table 12) was 5%. For the same molecule, the “Observed efficacy (%) of napropamide” value (28 DAA, Table 12) was 5%.

In the case of CS(=O)(=O)c1ccc(C(=O)C2C(=O)CCCC2=O)c(Cl)c1COCC(F)(F)F [tembotrione, Tembotrione], the “Observed efficacy (%) of tembotrione (53 g a.i./ha)” value (3 DAA, Table 15) is reported as 5%, the “Observed efficacy (%) of tembotrione (53 g a.i./ha)” value (7 DAA, Table 15) is reported as 15% and the “Observed efficacy (%) of tembotrione (53 g a.i./ha)” value (14 DAA, Table 15) is reported as 40%. The “Observed efficacy (%) of tembotrione (53 g a.i./ha)” value (21 DAA, Table 15) was 38%, the “Observed efficacy (%) of tembotrione (53 g a.i./ha)” value (28 DAA, Table 15) was 35% and the “Observed efficacy (%) of tembotrione (53 g a.i./ha)” value (35 DAA, Table 15) was 30%.

In the case of Cc1ccc2c(c1)[C@H](Nc1nc(N)nc(C(C)F)n1)[C@@H](C)C2 (some centres unmarked) [Indaziflam], the “Observed efficacy (%) of Indaziflam (50 g a.i./ha)” value (shortened to “Observed efficacy (%) of Indaziflam”) (7 DAA, Table 9) is reported as 60%, the “Observed efficacy (%) of Indaziflam” value (14 DAA, Table 9) is reported as 80% and the “Observed efficacy (%) of Indaziflam” value (21 DAA, Table 9) is reported as 85%. For the same molecule, the “Observed efficacy (%) of Indaziflam” value (28 DAA, Table 9) was 85%.
